The results in this text go back to patent US20210386737A1, “DIHYDROIMIDAZOPYRAZINONE COMPOUND, COMPOSITION INCLUDING SAME, AND USE THEREOF” (priority 2018, published 2021).

Experiment [1] concerns the target T1, ERK2 kinase (Homo sapiens, UniProt P28482).
T1 construct: purchased Promega V1961
The experiment is described as follows: ERK2 kinase inhibition (ADP-Glo). The experiment is classed as biochemical. As to conditions: ADP-Glo kit, 20 minutes reaction at room temperature. The source says:
ERK2 kinase (Promega, catalog No. V1961), RET (V804M), Active (Signalchem, catalog No, R02-12GG), ADP-Glo™ kit (Promega, catalog No. V9102), GDC-0994 (MCE, catalog No. HY-15947), ATP (Promega, catalog No. V910B), DMSO (Sigma, catalog No. D8418), DTT (Invitrogen, catalog No. P2325), 384-well plate (Greiner, catalog No. 784075), polypropylene 384-well plate (Labcyte, catalog No. P-05525-BC), polypropylene 96-well plate (Nunc, catalog No. 249944), plate shaker (Thermo, catalog No. 4625-1 CECN/THZ Q), centrifuge (Eppendorf, catalog No. 5810R), multilabel ELISA reader Envision 2104 multi-label Reader (PerkinElmer, catalog No. 74785), Echo acoustic dispenser (Labcyte, catalog No. 550).
Compound formulation: The test compounds were dissolved in DMSO to prepare a 10 mM stock solution. Then, the stock solution was diluted 10 times with a 3-fold gradient. When addition, 10-fold dilution was made with buffer solution.
ERK2 kinase assay: In 1× kinase buffer solution, ERK2 kinase was mixed with pre-formulated and diluted compounds of different concentrations for 10 minutes in duplicate for each concentration. The corresponding substrate and ATP were added thereto, and reacted at room temperature for 20 minutes (both a negative and a positive control were set, wherein the negative is blank control, and the positive control is GDC-0994). Detection reagent was added after the reaction is complete (reagent in ADP-Glo™ kit), and after 40 minutes of incubation at room temperature, Envision 2104 multi-label Reader ELISA reader was used for detection of enzyme activities under the presence of compounds of the present disclosure with different concentrations, and the inhibitory activities of different concentrations of compounds on enzyme activity were calculated. GraphPad Prism 6.0 software was used for data analysis, nonlinear curve regression was used to fit the data to get the dose-response curve, thereby IC50 values were calculated.

Experiment [2] has as its system phospho-p90RSK in A375 cell line. The experiment in a line: A375 cell assay (phospho-p90RSK sandwich ELISA). It is filed as cell-based. As to conditions: Homo sapiens, A-375; inhibition of phospho-p90RSK, A375 cells (BRAF V600E), 4 hours incubation. As for the experimental part: The cells in the logarithmic growth phase were taken and the trypan blue exclusion method was used to detect the cell viability to ensure that the cell viability is above 90%. The cell concentration was adjusted, and 150 μL cell suspension was added to a 96-well plate, which was incubated at 37° C., 5% CO2 for 16 h. The maximum concentration of the drug to be tested was 10 μM, which was diluted into 10 concentrations with a 3-fold gradient dilution, 50 μL drug solution was added to each well of the 96-well plate in duplicate, and incubation was continued for 4 hours. After removing the medium, 0.2 ml cell lysis solution and […] were added to each well, which was incubated on ice for 30 mm, and centrifuged for 10 min at 4° C. to afford cell lysis solution. PathScan®Phospho-p90RSK (Thr359) Sandwich ELISA Kit (CST, catalog No. 91959C) was used for detecting the inhibitory rate of the compounds of the present disclosure on phospho-p90RSK, to each well 100 μL cell lysis solution was added, and incubated at 4° C. overnight. The plate was washed, added with 100 μL reconstituted Detection Antibody, and incubated at 37° C. for 1 h. The plate was washed, added with 100 μL reconstituted HRP-Linked secondary antibody, and incubated at 37° C. for 30 min. The plate was washed, added with 100 μL TMB Substrate, and after incubating at 25° C. for 30 min, 100 μL STOP Solution was added, and EnVision (Perkin Elmer 2104) was used to detect fluorescence value, and inhibitory rates under the effect of different concentrations of compounds were calculated. The calculation of IC50 was carried out using Prism Graphpad 8.0, software.
Phospho-p90RSK cell assay was conducted in A375 cell line, which has human malignant melanoma with BRAF V600E mutation that upregulates the MAPK pathway, and therefore has increased endogenous levels of phospho-ERK and phospho-p90RSK.

Structures are written as SMILES.

T1 sequence (P28482 whole entry): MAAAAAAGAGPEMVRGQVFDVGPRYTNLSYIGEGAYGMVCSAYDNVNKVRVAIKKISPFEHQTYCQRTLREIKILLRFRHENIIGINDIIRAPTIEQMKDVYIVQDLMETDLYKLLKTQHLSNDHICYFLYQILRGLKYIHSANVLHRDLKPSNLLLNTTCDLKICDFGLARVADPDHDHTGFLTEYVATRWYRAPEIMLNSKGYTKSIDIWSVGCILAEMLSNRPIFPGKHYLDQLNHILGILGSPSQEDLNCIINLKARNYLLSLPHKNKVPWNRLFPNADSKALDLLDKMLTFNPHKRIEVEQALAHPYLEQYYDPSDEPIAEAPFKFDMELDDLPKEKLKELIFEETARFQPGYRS

As to `[2H]C([2H])([2H])OC[C@H]1Cn2cc(-c3nc(Nc4ccnn4C([2H])([2H])[2H])ncc3C)nc2C(=O)N1Cc1ccc(F)c(F)c1` [Compound I-5-1, (R)-7-(3,4-difluorobenzyl)-6-((methoxy-d3)-methyl)-2-(5-methyl-2-((1-(methyl-d3)-1H-pyrazol-5-yl)amino)pyrimidin-4-yl)-6,7-dihydroimidazo[1,2-a]pyrazin-8(5H)-one], the half-inhibitory concentration (IC50) in experiment [1] was found to be 2.75 nM; in experiment [2], 29.6 nM.

For the molecule `[2H]C([2H])([2H])OC[C@H]1Cn2cc(-c3nc(Nc4ccnn4C)ncc3C)nc2C(=O)N1Cc1ccc(F)c(F)c1` [Compound I-4-1, (R)-7-(3,4-difluorobenzyl)-6-((methoxy-d3)-methyl)-2-(5-methyl-2-((1-methyl-1H-pyrazol-5-yl)amino)pyrimidin-4-yl)-6,7-dihydroimidazo[1,2-a]pyrazin-8(5H)-one], the values for the IC50 in experiment [1] and in experiment [2] were 3.09 nM and 24.9 nM, respectively.

`[2H]C([2H])(c1ccc(F)c(F)c1)N1C(=O)c2nc(-c3nc(Nc4ccnn4C([2H])([2H])[2H])ncc3C)cn2C[C@@H]1COC` [Compound I-3, (R)-7-((3,4-difluorophenyl)methyl-d2)-6-(methoxymethyl)-2-(5-methyl-2-((1-(methyl-d3)-1H-pyrazol-5-yl)amino)pyrimidin-4-yl)-6,7-dihydroimidazo[1,2-a]pyrazin-8(5H)-one]: the half-inhibitory concentration (IC50) is 3.31 nM in experiment [1] and 34.6 nM in experiment [2].

As for `COC[C@H]1Cn2cc(-c3nc(Nc4ccnn4C)ncc3C)nc2C(=O)N1Cc1ccc(F)c(F)c1` [AZD0364, (R)-7-(3,4-difluorobenzyl)-6-(methoxymethyl)-2-(5-methyl-2-((1-methyl-1H-pyrazol-5-yl)amino)pyrimidin-4-yl)-6,7-dihydroimidazo[1,2-a]pyrazin-8(5H)-one, reference compound], the values for the half-maximal inhibitory concentration (IC50) in experiment [1] and in experiment [2] were 4.01 nM and 38.7 nM, respectively.

`[2H]C([2H])([2H])n1nccc1Nc1ncc(C)c(-c2cn3c(n2)C(=O)N(Cc2ccc(F)c(F)c2)[C@@H](COC)C3)n1` [Compound I-1, (R)-7-(3,4-difluorobenzyl)-6-(methoxymethyl)-2-(5-methyl-2-((1-(methyl-d3)-1H-pyrazol-5-yl)amino)pyrimidin-4-yl)-6,7-dihydroimidazo[1,2-a]pyrazin-8(5H)-one] showed an IC50 in experiment [2] of 30.1 nM.
